Key:
Assay type in all cases: functional
[1] = system: T47D; experiment: Growth inhibition of human T47D cells assessed as cell growth at 10^-4 M incubated for 48 hrs by sulforhodamine B assay relative to control; details: read-out: Activity
[2] = system: MOLT-4; experiment: Growth inhibition of human MOLT4 cells assessed as cell growth at 10^-4 M incubated for 48 hrs by sulforhodamine B assay relative to control; details: MOLT-4, 48 h, read-out: Activity
[3] = system: CCRF-CEM; experiment: Growth inhibition of human CCRF-CEM cells assessed as cell growth at 10^-5 M incubated for 48 hrs by sulforhodamine B assay relative to control; details: read-out: Activity
[4] = system: SR; experiment: Growth inhibition of human SR cells assessed as cell growth at 10^-5 M incubated for 48 hrs by sulforhodamine B assay relative to control; details: read-out: Activity
[5] = system: HL-60(TB); experiment: Growth inhibition of human HL-60(TB) cells assessed as cell growth at 10^-8 M incubated for 48 hrs by sulforhodamine B assay relative to control; details: HL-60, 48 h, read-out: Activity
[6] = system: CCRF-CEM; experiment: Growth inhibition of human CCRF-CEM cells incubated for 48 hrs by sulforhodamine B assay
[7] = system: CCRF-CEM; experiment: Growth inhibition of human CCRF-CEM cells assessed as cell growth at 10^-8 M incubated for 48 hrs by sulforhodamine B assay relative to control; details: read-out: Activity
[8] = system: HL-60; experiment: Cell cycle arrest in human HL60 cells assessed as accumulation at S-phase by propidium iodide staining based flow cytometry (reference value: 24.9%)
[9] = system: OVCAR-5; experiment: Growth inhibition of human OVCAR5 cells assessed as cell growth at 10^-5 M incubated for 48 hrs by sulforhodamine B assay relative to control; details: OVCAR-5, 48 h, read-out: Activity
[10] = system: EKVX; experiment: Growth inhibition of human EKVX cells assessed as cell growth at 10^-8 M incubated for 48 hrs by sulforhodamine B assay relative to control; details: read-out: Activity
[11] = system: NCI-H322M; experiment: Growth inhibition of human NCI-H322M cells assessed as cell growth at 10^-4 M incubated for 48 hrs by sulforhodamine B assay relative to control; details: read-out: Activity
[12] = system: SK-MEL-5; experiment: Growth inhibition of human SK-MEL-5 cells assessed as cell growth at 10^-5 M incubated for 48 hrs by sulforhodamine B assay relative to control; details: SK-MEL-5, 48 h, read-out: Activity
[13] = system: HL-60; experiment: Induction of apoptosis in human HL60 cells assessed as necrotic cells by propidium iodide/Annexin V staining based flow cytometry (reference value: 0.34%)
[14] = system: 786-0; experiment: Growth inhibition of human 786-0 cells assessed as cell growth at 10^-4 M incubated for 48 hrs by sulforhodamine B assay relative to control; details: 786-0, 48 h, read-out: Activity
[15] = system: SK-MEL-28; experiment: Growth inhibition of human SK-MEL-28 cells incubated for 48 hrs by sulforhodamine B assay; details: SK-MEL-28, 48 h
[16] = system: DU-145; experiment: Growth inhibition of human DU145 cells assessed as cell growth at 10^-6 M incubated for 48 hrs by sulforhodamine B assay relative to control; details: DU-145, 48 h, read-out: Activity
[17] = system: HL-60(TB); experiment: Growth inhibition of human HL-60(TB) cells assessed as cell growth at 10^-4 M incubated for 48 hrs by sulforhodamine B assay relative to control; details: HL-60, 48 h, read-out: Activity
[18] = system: DU-145; experiment: Growth inhibition of human DU145 cells assessed as cell growth at 10^-7 M incubated for 48 hrs by sulforhodamine B assay relative to control; details: DU-145, 48 h, read-out: Activity
[19] = system: OVCAR-8; experiment: Growth inhibition of human OVCAR8 cells assessed as cell growth at 10^-5 M incubated for 48 hrs by sulforhodamine B assay relative to control; details: OVCAR-8, 48 h, read-out: Activity
[20] = system: SF-539; experiment: Growth inhibition of human SF539 cells assessed as cell growth at 10^-5 M incubated for 48 hrs by sulforhodamine B assay relative to control; details: SF-539, 48 h, read-out: Activity
[21] = system: SNB-75; experiment: Growth inhibition of human SNB75 cells assessed as cell growth at 10^-5 M incubated for 48 hrs by sulforhodamine B assay relative to control; details: SNB-75, 48 h, read-out: Activity
[22] = system: Hs-578T; experiment: Growth inhibition of human Hs 578T cells assessed as cell growth at 10^-8 M incubated for 48 hrs by sulforhodamine B assay relative to control; details: read-out: Activity
[23] = system: U-251; experiment: Growth inhibition of human U251 cells incubated for 48 hrs by sulforhodamine B assay; details: U-251, 48 h
[24] = system: HCT-15; experiment: Growth inhibition of human HCT15 cells assessed as cell growth at 10^-5 M incubated for 48 hrs by sulforhodamine B assay relative to control; details: HCT-15, 48 h, read-out: Activity
[25] = system: RPMI-8226; experiment: Growth inhibition of human RPMI8226 cells assessed as cell growth at 10^-7 M incubated for 48 hrs by sulforhodamine B assay relative to control; details: RPMI-8226, 48 h, read-out: Activity
[26] = system: SK-MEL-2; experiment: Growth inhibition of human SK-MEL-2 cells incubated for 48 hrs by sulforhodamine B assay; details: SK-MEL-2, 48 h
[27] = system: MDA-MB-231; experiment: Growth inhibition of human MDA-MB-231 cells assessed as cell growth at 10^-8 M incubated for 48 hrs by sulforhodamine B assay relative to control; details: MDA-MB-231, 48 h, read-out: Activity
[28] = system: UACC-257; experiment: Growth inhibition of human UACC257 cells assessed as cell growth at 10^-7 M incubated for 48 hrs by sulforhodamine B assay relative to control; details: UACC-257, 48 h, read-out: Activity
[29] = system: Hs-578T; experiment: Growth inhibition of human Hs 578T cells assessed as cell growth at 10^-6 M incubated for 48 hrs by sulforhodamine B assay relative to control; details: read-out: Activity
[30] = system: OVCAR-4; experiment: Growth inhibition of human OVCAR4 cells incubated for 48 hrs by sulforhodamine B assay; details: OVCAR-4, 48 h
[31] = system: DU-145; experiment: Growth inhibition of human DU145 cells assessed as cell growth at 10^-5 M incubated for 48 hrs by sulforhodamine B assay relative to control; details: DU-145, 48 h, read-out: Activity
[32] = read-out: LC50 (the source's name)
[33] = read-out: pLC50 (the source's name) (converted)

With `CCS/C(Nc1ccccc1)=C(\C#N)C(=O)N/N=C\c1ccc(Cl)cc1Cl` the growth at 100 µM [1] was 17%, the growth at 100 µM [2] was 19% and the growth at 10 µM [3] was 16%. The growth at 10 µM [4] was 28%, the growth at 0.01 µM [5] was 97% and the GI50 ([6]; read-out: GI50) was 3.07 µM. The CC50 [6, 32] was over 100 µM, the TGI ([6]; read-out: TGI) was over 100 µM and the GI50 ([6]; read-out: pGI50 (converted)) was 3.09 µM. For the same compound, the CC50 [6, 33] was over 100 µM, the TGI ([6]; read-out: pTGI) was over 100 µM and the growth at 0.01 µM [7] was 103%. For the same compound, the Activity [8] was 13.18%, the growth at 10 µM [9] was 45% and the growth at 0.01 µM [10] was 98%. The growth at 100 µM [11] was 32%, the growth at 10 µM [12] was -6% and the Activity [13] was 2.03%. The growth at 100 µM [14] was 7%, the GI50 ([15]; read-out: GI50) was 23.6 µM and the CC50 [15, 32] was over 100 µM. It also gave a TGI ([15]; read-out: TGI) of over 100 µM, a GI50 ([15]; read-out: pGI50 (converted)) of 23.4 µM and a CC50 [15, 33] of over 100 µM. The TGI ([15]; read-out: pTGI) was over 100 µM, the growth at 1 µM [16] was 97% and the growth at 100 µM [17] was 5%. For the same compound, the growth at 0.1 µM [18] was 98%, the growth at 10 µM [19] was 27% and the growth at 10 µM [20] was 3%. The growth at 10 µM [21] was -2%, the growth at 0.01 µM [22] was 96% and the GI50 ([23]; read-out: GI50) was 3.95 µM. For the same compound, the CC50 [23, 32] was over 100 µM, the TGI ([23]; read-out: TGI) was over 100 µM and the GI50 ([23]; read-out: pGI50 (converted)) was 3.98 µM. It also gave a CC50 [23, 33] of over 100 µM, a TGI ([23]; read-out: pTGI) of over 100 µM and a growth at 10 µM [24] of 19%. It also gave a growth at 0.1 µM [25] of 94%, a GI50 ([26]; read-out: GI50) of 3.24 µM and a CC50 [26, 32] of over 100 µM. For the same compound, the TGI ([26]; read-out: TGI) was 43.6 µM, the GI50 ([26]; read-out: pGI50 (converted)) was 3.24 µM and the CC50 [26, 33] was over 100 µM. For the same compound, the TGI ([26]; read-out: pTGI) was 43.7 µM, the growth at 0.01 µM [27] was 101% and the growth at 0.1 µM [28] was 94%. The growth at 1 µM [29] was 75%, the GI50 ([30]; read-out: GI50) was 6.57 µM and the CC50 [30, 32] was over 100 µM. For the same compound, the TGI ([30]; read-out: TGI) was over 100 µM, the GI50 ([30]; read-out: pGI50 (converted)) was 6.61 µM and the CC50 [30, 33] was over 100 µM. It also gave a TGI ([30]; read-out: pTGI) of over 100 µM and a growth at 10 µM [31] of 12%.
`CCS/C(Nc1ccccc1)=C(\C#N)C(=O)Nc1ccc(OC)cc1` was tested, and the growth at 100 µM [1] was 3%, the growth at 100 µM [2] was 18% and the growth at 10 µM [3] was 11%. The growth at 10 µM [4] was 21%, the growth at 0.01 µM [5] was 96% and the GI50 ([6]; read-out: GI50) was 1.83 µM. The CC50 [6, 32] was over 100 µM, the TGI ([6]; read-out: TGI) was over 100 µM and the GI50 ([6]; read-out: pGI50 (converted)) was 1.82 µM. It also gave a CC50 [6, 33] of over 100 µM, a TGI ([6]; read-out: pTGI) of over 100 µM and a growth at 0.01 µM [7] of 91%. For the same compound, the Activity [8] was 15.51%, the growth at 10 µM [9] was 33% and the growth at 0.01 µM [10] was 89%. For the same compound, the growth at 100 µM [11] was 37%, the growth at 10 µM [12] was -8% and the Activity [13] was 1.98%. For the same compound, the growth at 100 µM [14] was 6%, the GI50 ([15]; read-out: GI50) was 15.3 µM and the CC50 [15, 32] was over 100 µM. The TGI ([15]; read-out: TGI) was over 100 µM, the GI50 ([15]; read-out: pGI50 (converted)) was 15.5 µM and the CC50 [15, 33] was over 100 µM. It also gave a TGI ([15]; read-out: pTGI) of over 100 µM, a growth at 1 µM [16] of 93% and a growth at 100 µM [17] of 2%. It also gave a growth at 0.1 µM [18] of 96%, a growth at 10 µM [19] of 23% and a growth at 10 µM [20] of -41%. The growth at 10 µM [21] was -13%, the growth at 0.01 µM [22] was 97% and the GI50 ([23]; read-out: GI50) was 4.42 µM. It also gave a CC50 [23, 32] of over 100 µM, a TGI ([23]; read-out: TGI) of over 100 µM and a GI50 ([23]; read-out: pGI50 (converted)) of 4.47 µM. The CC50 [23, 33] was over 100 µM, the TGI ([23]; read-out: pTGI) was over 100 µM and the growth at 10 µM [24] was 16%. The growth at 0.1 µM [25] was 89%, the GI50 ([26]; read-out: GI50) was 3.01 µM and the CC50 [26, 32] was over 100 µM. It also gave a TGI ([26]; read-out: TGI) of over 100 µM, a GI50 ([26]; read-out: pGI50 (converted)) of 3.02 µM and a CC50 [26, 33] of over 100 µM. For the same compound, the TGI ([26]; read-out: pTGI) was over 100 µM, the growth at 0.01 µM [27] was 104% and the growth at 0.1 µM [28] was 95%. It also gave a growth at 1 µM [29] of 84%, a GI50 ([30]; read-out: GI50) of 7.61 µM and a CC50 [30, 32] of over 100 µM. For the same compound, the TGI ([30]; read-out: TGI) was over 100 µM, the GI50 ([30]; read-out: pGI50 (converted)) was 7.59 µM and the CC50 [30, 33] was over 100 µM. For the same compound, the TGI ([30]; read-out: pTGI) was over 100 µM and the growth at 10 µM [31] was 13%.
